This is an account of results in patent US20190192548A1, “USE OF CYCLIC PHOSPHATE SUBSTITUTED NUCLEOSIDE DERIVATIVESFOR THE TREATMENT OF VIRAL DISEASES” (MERCK SHARP & DOHME CORP., priority 2016, published 2019).

Like-named read-outs stand apart in the source and are kept apart here.

Usually CC50 stands for the concentration at which the toxic effect on the cells reaches its halfway point. As usually defined, the EC50 is the concentration giving half of the maximal effect.

Series [1] can be described thus: Cytotoxicity assay in replicon cells (MTS, CellTiter 96). Format: cell-based. Particulars: three days post dosing, read-out: CC50 (EDU) Range. As to the method:
(§1) DMSO at 0.5% and fetal bovine serum at 10% in the assay media. Cells are harvested three days post-dosing, and the replicon RNA level is determined using real-time RT-PCR (Taqman assay) with GAPDH RNA as endogenous control. EC50 values are calculated from experiments with 10 serial twofold dilutions of the inhibitor in triplicate. To measure cytotoxicity in replicon cells of an inhibitor, an MTS assay is performed according to the manufacturer's protocol for CellTiter 96 Aqueous One Solution Cell Proliferation Assay (Promega, Cat # G3580) three days post dosing on cells treated identically as in replicon activity assays. […] Cytotoxicity in other types of cells may be measured using the same MTS protocol.
(§2) Data were obtained using this method for selected compounds of the present invention, and are set forth below in Table 1.
For orientation: A replicon is a self-replicating genome or part of one, used to study replication in cells.

Series [2] concerns replicon cells (1b-Con1). Description: Replicon activity assay (cell-based anti-HCV activity, replicon RNA by real-time RT-PCR). As to the method:
To measure cell-based anti-HCV activity of the compounds of the present invention, replicon cells (1b-Con1) are seeded at 5000 cells/well in 96-well plates one day prior to treatment with a compound of the invention. Various concentrations of a test compound of the invention in DMSO are then added to the replicon cells, with the final concentration of
as §1, §2

The test system of series [3] is replicon cells. Description: Cytotoxicity assay in replicon cells (MTS, CellTiter 96). Format: cell-based. Particulars: three days post dosing, read-out: CC50 (EDU) Range. As to the method:
as §1, §2

Where [4] appears, read: Hepatitis C virus, 72 h, read-out: EC50 (1b) Range, replicon cells (1b-Con1), replicon RNA level three days post-dosing, GAPDH RNA as control.
Setting [5] is: read-out: EC50 (1b) Range, replicon cells (1b-Con1), replicon RNA level three days post-dosing, GAPDH RNA as control.

On to `CC(C)OC(=O)[C@H](C)CCOP1(=O)OC[C@H]2O[C@@H](n3ccc(N)nc3=O)C(F)(F)[C@@H]2O1` (single isomer, unassigned) [Compound 7 Diastereomer 1], for which the CC50 at 3 days in series [1] is no more than 50 µM. Moreover, the EC50 in series [2] (setting [4]) lay within 250 to 1000 nM.

For `CC(C)OC(=O)[C@H](C)CCOP1(=O)OC[C@H]2O[C@@H](n3ccc(N)nc3=O)C(F)(F)[C@@H]2O1` (single isomer, unassigned) [Compound 7 Diastereomer 2], in series [3], the CC50 is no more than 50 µM. For the same molecule, the EC50 in series [2] (setting [5]) was less than 250 nM.

`CC(C)OC(=O)[C@@H](C)CCOP1(=O)OC[C@H]2O[C@@H](n3ccc(N)nc3=O)C(F)(F)[C@@H]2O1` (single isomer, unassigned) [Compound 8 Diastereomer 1]: the CC50 at 3 days in series [1] is no more than 50 µM. In addition, the EC50 in series [2] (setting [4]) lay in the range of 250 to 1000 nM.

`CC(C)OC(=O)[C@@H](C)CCOP1(=O)OC[C@H]2O[C@@H](n3ccc(N)nc3=O)C(F)(F)[C@@H]2O1` (single isomer, unassigned) [Compound 8 Diastereomer 2]: the cytotoxic concentration (CC50) in series [3] is no more than 50 µM. The EC50 in series [2] (setting [5]) lay in the range of 250 to 1000 nM.

`CCOC(=O)[C@@H](C)CCOP1(=O)OC[C@H]2O[C@@H](n3ccc(N)nc3=O)C(F)(F)[C@@H]2O1` (single isomer, unassigned) [Compound 9 Diastereomer 1]: in series [1], the CC50 at 3 days is no more than 50 µM. The EC50 in series [2] (setting [4]) was 250 to 1000 nM.

`CCOC(=O)[C@@H](C)CCOP1(=O)OC[C@H]2O[C@@H](n3ccc(N)nc3=O)C(F)(F)[C@@H]2O1` (single isomer, unassigned) [Compound 9 Diastereomer 2]: in series [3], the CC50 was no more than 50 µM. In addition, in series [2] (setting [5]), the EC50 was 250 to 1000 nM.

As for `CCOC(=O)[C@H](C)CCOP1(=O)OC[C@H]2O[C@@H](n3ccc(N)nc3=O)C(F)(F)[C@@H]2O1` (single isomer, unassigned) [Compound 10 Diastereomer 1], the half-maximal cytotoxic concentration (CC50) at 3 days in series [1] is no more than 50 µM. For the same molecule, the EC50 in series [2] (setting [4]) was in the range of 250 to 1000 nM.

Take `CCOC(=O)[C@H](C)CCOP1(=O)OC[C@H]2O[C@@H](n3ccc(N)nc3=O)C(F)(F)[C@@H]2O1` (single isomer, unassigned) [Compound 10 Diastereomer 2]: in series [3], the CC50 is no more than 50 µM. The concentration giving a half-maximal response (EC50) in series [2] (setting [5]) was in the range of 250 to 1000 nM.
